# Experimental data from patent US20040229268A1, “Method and kit for identifying antibiotic-resistant microorganisms” (priority 2003, published 2004).
# How the values were obtained:
# [1] = system: mecA gene; Staphylococcus ribosomal nucleic acids; test: HPA after thermal lysis, base hydrolysis and neutralization (Examples 5-7); format: binding, S. aureus
# Method: The cultured S. aureus specimens were lysed by suspending 1 μl loops of bacteria in 150 μl of lysis buffer and then incubating at 105° C. for 15 minutes. Next, 100 μl of 2 N LiOH base solution was added and RNA was hydrolyzed by incubating the mixtures at 60° C. for 15 minutes. Hydrolyzed samples were neutralized by the addition of 100 μl of a neutralizing reagent that included 2 N HCl and 100 mM succinate buffer (pH 5.5 prior to acidification with HCl). Specifically hybridized probe was detected by standard HPA, essentially as described in Example 1.
# Specimens (1 μl loops of bacteria) were treated and tested essentially as described in Example 5 with the following differences: incubation for lysis was for 15 minutes and incubation for hybridization was for 45 minutes for samples shown in Tables 7-8, while incubation for lysis was for 10 minutes and incubation for hybridization was for 20 minutes for samples shown in Table 9. All of the base-treated solutions were neutralized by the addition of 250 μl of 0.8 N HCl containing 100 mM succinate.
# 2′-methoxy analogs of the AE-labeled DNA probes were prepared by standard phosphoramidite synthesis using 2′ methoxy phosphoramidite analogs. Additional linker positions, which are indicated by parentheses in Table 11, for probe 2 were also prepared for testing. Deoxy probes and 2′-methoxy probe analogs were tested essentially as described in Example 5, except as noted below. Probes synthesized using 2′-methoxy nucleotide analogs are particularly identified by the “MeO” designations. Brief summaries of the procedures used to obtain the results are appended to the tables.
# [2] = system: mecA gene; Staphylococcus spp. and S. aureus ribosomal nucleic acids; test: HPA probe panel on clinical and ATCC isolates (Examples 8-9); format: binding
# Method: Oxacillin MIC results were provided by an outside laboratory. The GP Probe results were determined as described in Example 8.
# [3] = system: mecA gene; rRNA (pan-bacterial probe); test: Hybridization Protection Assay (HPA), AE-labeled probes, thermally lysed specimens (Examples 1-2); format: binding, S. aureus
# Method: The specimens were lysed by suspending approximately 5×10^8 cells in a lysis buffer (0.1% lithium lauryl sulfate, 1 mM EDTA, 20 mM lithium succinate, pH 5.5) and then incubating in a heat block set at 110° C. for 20 minutes. Thermal lysis of a variety of other specimens was effected under a range of temperature (heat block set at about 95° C. to 110° C.) and time (about 10 to 25 minutes) conditions. The lysed samples were tested for the presence of target sequences complementary to the probes using a Hybridization Protection Assay (HPA) as described by Arnold et al., in Clin. Chem. 35:1588(1989) and U.S. Pat. No. 6,004,745. 50 μl of the heat-treated suspension was incubated with an equal volume of AE-labeled probe in 2× hybridization buffer (1.2 M LiCl, 2% lithium lauryl sulfate, 20 mM EDTA, 20 mM EGTA, 100 mM lithium succinate, pH 5.5) at 60° C. for 30 minutes. The pH of succinate solutions may range from about 4.5 to about 5.5, although it is desirable to use a pH of 4.8 for succinate buffering. 300 μl of a selection reagent (0.6 M borate buffered solution, pH 8.5; note, pH may vary from 8.0 to 9.0) was added, the mixture was heated at 60° C. for 10 minutes to effect differential hydrolysis, and the samples were read in a GEN-PROBE® LEADER® luminometer using sequential 300 μl injections of 0.1% H2O2 and 1 N NaOH solutions (see Arnold et al, supra; GEN-PROBE® Detection Reagent Kit, Cat. No. 1791 may be used).
# Procedures similar to those described in Example 1 were conducted using a large number of bacterial samples, except that parallel hybridization reactions employed a pan-bacterial probe which targeted rRNA (Probe Reagent 1, GEN-PROBE® MTC-NI Kit, catalog no. 4573). […] The pan-bacterial probe reagent served as a positive control for lysis of all of the specimens. In this procedure each sample was tested against a panel of the three probes contained in separate hybridization reactions. Aliquots of the samples tested using the pan-bacterial probe reagent were diluted 1:3000 prior to performing luminometry so that results fell within the linear range of the detector. The signals indicated lysis and detection of ribosomal nucleic acids in each of the samples. These values depended on the number of bacterial cells in the specimen, as well as on the extent of cell lysis and the release or accessibility of ribosomal nucleic acids from the cells to be detected by the pan-bacterial probe.
sequence,measurement,setting,value
CCGAACTGAGAACAACTTTATGGGATTTGC (chemistry not given here) [Staphylococcus spp. probe with helpers],RLU,"[1]; Table 6, GP18(Neg), MSSA ATCC #12600","170,434 RLU"
same,RLU,"[1]; Table 6, GP1214(Neg), MSSA ATCC #29247","234,286 RLU"
same,RLU,"[1]; Table 6, GP1217(Pos), MRSA ATCC #33591","225,772 RLU"
same,RLU,"[1]; Table 6, GP1218(Pos), MRSA ATCC #43866","203,488 RLU"
same,HPA Results (# positive for indicated probes),"[2]; ATCC MRSA, 1 isolate, Oxacillin MIC 16 μg/ml",1
same,HPA Results (# positive for indicated probes),"[2]; ATCC MSSA, 1 isolate, Oxacillin MIC 1 μg/ml",1
same,HPA Results (# positive for indicated probes),"[2]; ATCC MSSA, 4 isolates, Oxacillin MIC 0.5 μg/ml",4
same,HPA Results (# positive for indicated probes),"[2]; ATCC MSSA, 6 isolates, Oxacillin MIC ≦0.25 μg/ml",6
same,HPA Results (# positive for indicated probes),"[2]; Clinical MRSA, 8 isolates, Oxacillin MIC 16 μg/ml",8
same,HPA Results (# positive for indicated probes),"[2]; Clinical MRSA, 107 isolates, Oxacillin MIC >16 μg/ml",107
same,HPA Results (# positive for indicated probes),"[2]; Clinical MSSA, 28 isolates, Oxacillin MIC 0.5 μg/ml",28
same,HPA Results (# positive for indicated probes),"[2]; Clinical MSSA, 99 isolates, Oxacillin MIC ≦0.25 μg/ml",99
same,HPA Results (RLU),"[2]; GP21 (S. aureus, mecA(−), MSSA)",373232 RLU
same,HPA Results (RLU),"[2]; GP22 (CoNS, mecA(+))",225141 RLU
same,HPA Results (RLU),"[2]; GP23 (S. aureus, mecA(−))",301657 RLU
same,HPA Results (RLU),"[2]; GP24 (S. aureus, mecA(+))",306718 RLU
same,HPA Results (RLU),"[2]; GP25 (S. aureus, mecA(+))",456426 RLU
same,HPA Results (RLU),"[2]; GP26 (S. aureus, mecA(−))",262267 RLU
same,HPA Results (RLU),"[2]; GP27 (CoNS, mecA(−))",182304 RLU
same,HPA Results (RLU),"[2]; GP28 (S. aureus, mecA(−))",246636 RLU
same,HPA Results (RLU),"[2]; GP29 (S. aureus, mecA(+))",388748 RLU
same,HPA Results (RLU),"[2]; GP30 (S. aureus, mecA(−))",440128 RLU
same,HPA Results (RLU),"[2]; GP31 (S. aureus, mecA(+))",349207 RLU
same,HPA Results (RLU),"[2]; GP32 (S. aureus, mecA(−))",432041 RLU
same,HPA Results (RLU),"[2]; GP33 (S. aureus, mecA(+))",160830 RLU
same,HPA Results (RLU),"[2]; GP34 (S. aureus, mecA(−))",634079 RLU
same,HPA Results (RLU),"[2]; GP35 (S. aureus, mecA(+))",543089 RLU
same,HPA Results (RLU),"[2]; GP36 (S. aureus, mecA(−))",370898 RLU
same,HPA Results (RLU),"[2]; GP37 (S. aureus, mecA(+))",397722 RLU
same,HPA Results (RLU),"[2]; GP38 (S. aureus, mecA(+))",387613 RLU
same,HPA Results (RLU),"[2]; GP39 (S. aureus, mecA(−))",280358 RLU
same,HPA Results (RLU),"[2]; GP40 (S. aureus, mecA(−))",292407 RLU
same,HPA Results (RLU),[2]; Neg Control (Hybridization Buffer),1775 RLU
same,HPA Results (RLU),"[2]; Pos Control GP1217 (S. aureus, mecA(+), MRSA)",170530 RLU
same,HPA Results (# positive for indicated probes),"[2]; S. epidermidis, 1 isolate, Oxacillin MIC >16 μg/ml",1
same,HPA Results (# positive for indicated probes),"[2]; S. epidermidis, 2 isolates, Oxacillin MIC ≦0.25 μg/ml",2
same,HPA Results (# positive for indicated probes),"[2]; S. hemoliticus, 1 isolate, Oxacillin MIC ≦0.25 μg/ml",1
same,HPA Results (# positive for indicated probes),"[2]; S. hominis, 1 isolate, Oxacillin MIC ≦0.25 μg/ml",1
same,HPA Results (# positive for indicated probes),"[2]; S. hyicus-hyicus, 1 isolate, Oxacillin MIC ≦0.25 μg/ml",1
same,HPA Results (# positive for indicated probes),"[2]; S. intermedius, 1 isolate, Oxacillin MIC ≦0.25 μg/ml",1
same,HPA Results (# positive for indicated probes),"[2]; S. saprophyticus, 1 isolate, Oxacillin MIC 0.5 μg/ml",1
same,HPA Results (# positive for indicated probes),"[2]; S. simulans, 1 isolate, Oxacillin MIC ≦0.25 μg/ml",1
same,HPA Results (# positive for indicated probes),"[2]; S. warneri, 1 isolate, Oxacillin MIC ≦0.25 μg/ml",1
"CGCTATGATCCCAATCTAACTTCCACATACC (AE label, linker between 21 and 22, chemistry not fully specified; listed as Staphylococcus aureus) [Probe 2]",AE-probe Average RLU,[3]; No Specimen,3062 RLU
same,AE-probe Average RLU,"[3]; S. aureus specimen #99, mecA PCR Pos",8072 RLU
same,AE-probe Average RLU,"[3]; S. aureus specimen #100, mecA PCR Neg",5585 RLU
same,AE-Probe Signal (RLU),"[3]; Table 2, Negative Control",1931 RLU
same,AE-Probe Signal (RLU),"[3]; Table 2, specimen 10, mecA PCR Neg, pan-bacterial diluted 1:3000 prior to luminometry",3274 RLU
same,AE-Probe Signal (RLU),"[3]; Table 2, specimen 99, mecA PCR Pos, pan-bacterial diluted 1:3000 prior to luminometry",13021 RLU
same,AE-Probe Signal (RLU),"[3]; Table 2, specimen 100, mecA PCR Neg, pan-bacterial diluted 1:3000 prior to luminometry",6186 RLU
same,AE-Probe Signal (RLU),"[3]; Table 2, specimen 101, mecA PCR Neg, pan-bacterial diluted 1:3000 prior to luminometry",6266 RLU
same,AE-Probe Signal (RLU),"[3]; Table 2, specimen 102, mecA PCR Pos, pan-bacterial diluted 1:3000 prior to luminometry",13065 RLU
same,AE-Probe Signal (RLU),"[3]; Table 2, specimen 103, mecA PCR Neg, pan-bacterial diluted 1:3000 prior to luminometry",2366 RLU
same,AE-Probe Signal (RLU),"[3]; Table 2, specimen 104, mecA PCR Neg, pan-bacterial diluted 1:3000 prior to luminometry",2000 RLU
same,AE-Probe Signal (RLU),"[3]; Table 2, specimen 105, mecA PCR Neg, pan-bacterial diluted 1:3000 prior to luminometry",2714 RLU
same,AE-Probe Signal (RLU),"[3]; Table 2, specimen 106, mecA PCR Neg, pan-bacterial diluted 1:3000 prior to luminometry",2989 RLU
same,AE-Probe Signal (RLU),"[3]; Table 2, specimen 139, mecA PCR Pos, pan-bacterial diluted 1:3000 prior to luminometry",9563 RLU
same,AE-Probe Signal (RLU),"[3]; Table 2, specimen 140, mecA PCR Pos, pan-bacterial diluted 1:3000 prior to luminometry",4967 RLU
same,AE-Probe Signal (RLU),"[3]; Table 2, specimen 142, mecA PCR Pos, pan-bacterial diluted 1:3000 prior to luminometry",10345 RLU
same,AE-Probe Signal (RLU),"[3]; Table 2, specimen 145, mecA PCR Neg, pan-bacterial diluted 1:3000 prior to luminometry",2788 RLU
same,AE-Probe Signal (RLU),"[3]; Table 2, specimen 148, mecA PCR Pos, pan-bacterial diluted 1:3000 prior to luminometry",15878 RLU
same,AE-Probe Signal (RLU),"[3]; Table 2, specimen 155, mecA PCR Neg, pan-bacterial diluted 1:3000 prior to luminometry",2257 RLU
same,AE-Probe Signal (RLU),"[3]; Table 2, specimen 164, mecA PCR Neg, pan-bacterial diluted 1:3000 prior to luminometry",3287 RLU
same,AE-Probe Signal (RLU),"[3]; Table 2, specimen 178, mecA PCR Pos, pan-bacterial diluted 1:3000 prior to luminometry",12652 RLU
same,AE-Probe Signal (RLU),"[3]; Table 2, specimen 188, mecA PCR Pos, pan-bacterial diluted 1:3000 prior to luminometry",20757 RLU
same,AE-Probe Signal (RLU),"[3]; Table 2, specimen 270, mecA PCR Pos, pan-bacterial diluted 1:3000 prior to luminometry",14965 RLU
same,AE-Probe Signal (RLU),"[3]; Table 2, specimen 296, mecA PCR Pos, Lab Pos control, pan-bacterial diluted 1:3000 prior to luminometry",10585 RLU
